# “And” between values parts separate entries of the source, which are not always exact repeats. Equal entries are not always repeated. Where two headings read alike, the source gives them in different places.
# Key:
# CB1 (rCB1) = CB1 (rCB1) (Rattus norvegicus, UniProt P20272); assay: Single-point radioligand displacement screen; format: binding; conditions: for % 1H-CP-55,940 displacement (mean) from single point screen: 10 µM, 1 µM or 300 nM by cell colour (not visible); for rep1_displacement / rep2_displacement / rep3_displacement: Figure 1c source data; for rep1_displacement: replicate 1; for rep2_displacement: replicate 2; for rep3_displacement: replicate 3
# Chain of CB1 (rCB1) (P20272 whole entry): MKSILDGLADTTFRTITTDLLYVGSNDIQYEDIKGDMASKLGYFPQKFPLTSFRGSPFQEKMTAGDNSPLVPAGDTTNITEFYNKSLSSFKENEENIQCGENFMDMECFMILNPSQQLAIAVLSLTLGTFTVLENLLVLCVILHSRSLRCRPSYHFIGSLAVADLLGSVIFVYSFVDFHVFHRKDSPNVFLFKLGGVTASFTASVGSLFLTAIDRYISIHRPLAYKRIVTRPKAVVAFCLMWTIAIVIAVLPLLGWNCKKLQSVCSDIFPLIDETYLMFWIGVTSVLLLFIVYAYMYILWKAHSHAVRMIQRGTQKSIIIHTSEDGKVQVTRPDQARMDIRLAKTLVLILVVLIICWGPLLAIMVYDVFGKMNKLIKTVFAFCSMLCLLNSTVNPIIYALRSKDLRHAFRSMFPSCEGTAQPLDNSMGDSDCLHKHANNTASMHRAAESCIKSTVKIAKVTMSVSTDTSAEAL
# hCB1 = hCB1 (Homo sapiens, UniProt P21554); assay: bioSensAll ebBRET signaling profiling, hCB1; format: cell-based; design: host or cells: HEK293SL cells, transient PEI transfection; conditions: for Gi1 hCB1 response: Gi1 biosensor; for Gi1 hCB1 / GoB hCB1: single replicate values, FigS6a; for Emax [95% CI]: normalized to CP-55,940; for EC50: read-out: EC50 [95% CI]
# Chain of hCB1 (P21554 whole entry): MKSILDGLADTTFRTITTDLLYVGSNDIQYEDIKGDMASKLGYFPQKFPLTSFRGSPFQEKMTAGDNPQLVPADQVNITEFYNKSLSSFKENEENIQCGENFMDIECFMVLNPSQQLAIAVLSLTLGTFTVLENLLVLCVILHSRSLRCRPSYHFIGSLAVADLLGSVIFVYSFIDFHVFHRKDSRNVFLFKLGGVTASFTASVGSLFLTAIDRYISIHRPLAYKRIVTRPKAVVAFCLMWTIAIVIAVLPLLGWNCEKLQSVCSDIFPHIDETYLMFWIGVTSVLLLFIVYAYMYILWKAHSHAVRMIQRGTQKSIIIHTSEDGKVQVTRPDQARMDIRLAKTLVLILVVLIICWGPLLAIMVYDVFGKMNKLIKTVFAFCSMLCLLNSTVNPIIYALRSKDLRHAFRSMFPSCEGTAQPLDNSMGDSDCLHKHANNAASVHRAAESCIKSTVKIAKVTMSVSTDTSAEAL
structure (smiles),measurement,setting,value
Cc1nc(CC2CC2)oc1-c1nc(Cn2c(C(C)C)nc3ccccc32)no1 [7019_26],"% 1H-CP-55,940 displacement (mean) from single point screen",CB1 (rCB1),42.67%
CCCCc1nc(C)c(Cc2nc(Cc3ccc4c(c3)OCO4)no2)s1 [7019_27],"% 1H-CP-55,940 displacement (mean) from single point screen",CB1 (rCB1),45.01%
Cc1nn(CC2CC2)c(C)c1Cc1nc(Cc2ccc3c(c2)OCO3)no1 [7019_28],"% 1H-CP-55,940 displacement (mean) from single point screen",CB1 (rCB1),36.27%
COCc1nc(-c2nc(Cc3ccc4c(c3)OCO4)no2)c(-c2ccccc2)s1 [7019_29],"% 1H-CP-55,940 displacement (mean) from single point screen",CB1 (rCB1),24.10%
c1ccc(-c2nc(C3CC3)sc2-c2nnc(-c3ccc4c(c3)OCO4)o2)cc1 [7019_32],"% 1H-CP-55,940 displacement (mean) from single point screen",CB1 (rCB1),39.89%
CCOC(=O)c1nc(-c2nc(Cc3cc4c(cc3Br)OCO4)no2)cs1 [7019_300],"% 1H-CP-55,940 displacement (mean) from single point screen",CB1 (rCB1),3.83%
CC(C)(C)c1c(C(=O)OCC2CSc3ccccc3O2)cnn1Cc1ccccc1 (stereo not shown) [7800_22],"% 1H-CP-55,940 displacement (mean) from single point screen",CB1 (rCB1),73.02%
Cc1c(C(=O)OCC2CSc3ccccc3O2)cnn1Cc1ccc2ccccc2c1 (stereo not shown) [7800_24],"% 1H-CP-55,940 displacement (mean) from single point screen",CB1 (rCB1),50.03%
Cc1c(C(=O)OCC2CSc3ccccc3O2)cnn1Cc1cccc(C(F)(F)F)c1 (stereo not shown) [7800_25],"% 1H-CP-55,940 displacement (mean) from single point screen",CB1 (rCB1),58.49%
Cc1c(C(=O)OCC2CSc3ccccc3S2)cnn1Cc1ccccc1 (stereo not shown) [7800_26],"% 1H-CP-55,940 displacement (mean) from single point screen",CB1 (rCB1),69.84%
O=C(OCC1CSc2ccccc2O1)c1cnn(Cc2ccccc2)c1Br (stereo not shown) [7800_27],"% 1H-CP-55,940 displacement (mean) from single point screen",CB1 (rCB1),70.31%
Cc1nn(Cc2ccccc2Cl)c(C)c1C(=O)OCC1CSc2ccccc2O1 (stereo not shown) [7800_28],"% 1H-CP-55,940 displacement (mean) from single point screen",CB1 (rCB1),55.46%
"CCCCCCC1(c2cc(O)c3c(c2)OC(C)(C)[C@@H]2CC[C@@H](O)C[C@@H]32)CCC1 [AM2389, reference compound]",rep1_displacement,CB1 (rCB1),99.9
same,rep2_displacement,CB1 (rCB1),99.9
same,rep3_displacement,CB1 (rCB1),99.8
CCc1nc(C(=O)NC(c2ccccc2)c2cccnc2)nn1-c1ccccc1Cl (stereo not shown) [compound 00051],"% 1H-CP-55,940 displacement (mean) from single point screen",CB1 (rCB1),16.02%
same,rep1_displacement,CB1 (rCB1),20.4
same,rep2_displacement,CB1 (rCB1),19.7
same,rep3_displacement,CB1 (rCB1),7.9
N#CCCn1ncc(C(=O)OCC2CSc3ccccc3O2)c1-c1ccccc1 (stereo not shown) [compound 0372],"% 1H-CP-55,940 displacement (mean) from single point screen",CB1 (rCB1),41.18%
Cc1nc(C2CC2)oc1-c1nc(Cc2ccc3c(c2)OCO3)no1 [compound 0682],"% 1H-CP-55,940 displacement (mean) from single point screen",CB1 (rCB1),-7.41%
Cc1cc(C(=O)N2CC3(CCC3)[C@H]2[C@@H]2CCCO2)nn1-c1cccc(C(F)(F)F)c1 [‘5490],Gi1 hCB1 response,hCB1; Log [Compound] (M) -4.22186,126.936
same,Gi1 hCB1 response,hCB1; Log [Compound] (M) -4.63927,115.566
same,Gi1 hCB1 response,hCB1; Log [Compound] (M) -5.47381,67.3119
same,Gi1 hCB1 response,hCB1; Log [Compound] (M) -5.89285,63.8428
same,Gi1 hCB1 response,hCB1; Log [Compound] (M) -6.31878,33.6054
same,Gi1 hCB1 response,hCB1; Log [Compound] (M) -6.72585,15.275
same,Gi1 hCB1 response,hCB1; Log [Compound] (M) -7.14267,11.8954
same,Gi1 hCB1 response,hCB1; Log [Compound] (M) -7.55284,0.9509
same,Gi1 hCB1 response,hCB1; Log [Compound] (M) -8,4.733
same,Gi1 hCB1 response,hCB1; Log [Compound] (M) -8.22186,-9.009
same,Gi1 hCB1 response,hCB1; Log [Compound] (M) -8.39794,1.018
same,Gi1 hCB1 response,hCB1; Log [Compound] (M) -8.68787,-1.578
same,Gi1 hCB1 response,hCB1; Log [Compound] (M) -9.15521,-18.3419
same,Gi1 hCB1 response,hCB1; Log [Compound] (M) -9.61989,1.018
same,Gi1 hCB1 response,hCB1; Log [Compound] (M) -10.0969,0.1452
same,Gi1 hCB1 response,hCB1; Log [Compound] (M) -10.5529,4.89
same,Gi1 hCB1 response,hCB1; Log [Compound] (M) -11.0177,13.5964
same,Gi1 hCB1 response,hCB1; Log [Compound] (M) -11.4949,-2.608
same,Gi1 hCB1 response,hCB1; Log [Compound] (M) -11.9208,1.712
same,Gi1 hCB1 response,hCB1; Log [Compound] (M) -12.3979,-1.959
same,Gi1 hCB1 response,hCB1; Log [Compound] (M) -12.8861,-5.584
same,Gi1 hCB1 response,"hCB1; Log [Compound] (M) -13, individual replicate values",3.39 and 3.458
same,Gi1 hCB1,hCB1; Log [Compound] (M) -4.22186,94.6851
same,GoB hCB1,hCB1; Log [Compound] (M) -4.22186,96.1825
same,Gi1 hCB1,hCB1; Log [Compound] (M) -4.63927,84.6644
same,GoB hCB1,hCB1; Log [Compound] (M) -4.63927,79.6378
same,Gi1 hCB1,hCB1; Log [Compound] (M) -5.05788,72.2386
same,GoB hCB1,hCB1; Log [Compound] (M) -5.05788,59.1548
same,Gi1 hCB1,hCB1; Log [Compound] (M) -5.47381,56.452
same,GoB hCB1,hCB1; Log [Compound] (M) -5.47381,52.9325
same,Gi1 hCB1,hCB1; Log [Compound] (M) -5.89285,36.6417
same,GoB hCB1,hCB1; Log [Compound] (M) -5.89285,40.0205
same,Gi1 hCB1,hCB1; Log [Compound] (M) -6.31878,21.1018
same,GoB hCB1,hCB1; Log [Compound] (M) -6.31878,23.8534
same,Gi1 hCB1,hCB1; Log [Compound] (M) -6.72585,10.5569
same,GoB hCB1,hCB1; Log [Compound] (M) -6.72585,12.0564
same,Gi1 hCB1,hCB1; Log [Compound] (M) -7.14267,5.469
same,GoB hCB1,hCB1; Log [Compound] (M) -7.14267,9.719
same,Gi1 hCB1,hCB1; Log [Compound] (M) -7.55284,7.104
same,GoB hCB1,hCB1; Log [Compound] (M) -7.55284,4.971
same,Gi1 hCB1,hCB1; Log [Compound] (M) -8,4.236
same,GoB hCB1,hCB1; Log [Compound] (M) -8,4.953
same,Gi1 hCB1,hCB1; Log [Compound] (M) -8.22186,2.062
same,GoB hCB1,hCB1; Log [Compound] (M) -8.22186,0.1334
same,Gi1 hCB1,hCB1; Log [Compound] (M) -8.39794,3.018
same,GoB hCB1,hCB1; Log [Compound] (M) -8.39794,6.805
same,Gi1 hCB1,hCB1; Log [Compound] (M) -8.68787,2.71
same,GoB hCB1,hCB1; Log [Compound] (M) -8.68787,-2.061
same,Gi1 hCB1,hCB1; Log [Compound] (M) -9.15521,2.078
same,GoB hCB1,hCB1; Log [Compound] (M) -9.15521,0.565
same,Gi1 hCB1,hCB1; Log [Compound] (M) -9.61989,1.014
same,GoB hCB1,hCB1; Log [Compound] (M) -9.61989,0.7988
same,Gi1 hCB1,hCB1; Log [Compound] (M) -10.0969,3.712
same,GoB hCB1,hCB1; Log [Compound] (M) -10.0969,2.4173
same,Gi1 hCB1,hCB1; Log [Compound] (M) -10.5529,2.602
same,GoB hCB1,hCB1; Log [Compound] (M) -10.5529,1.752
same,Gi1 hCB1,hCB1; Log [Compound] (M) -11.0177,1.5536
same,GoB hCB1,hCB1; Log [Compound] (M) -11.0177,4.395
same,Gi1 hCB1,hCB1; Log [Compound] (M) -11.4949,3.327
same,GoB hCB1,hCB1; Log [Compound] (M) -11.4949,4.324
same,Gi1 hCB1,hCB1; Log [Compound] (M) -11.9208,2.772
same,GoB hCB1,hCB1; Log [Compound] (M) -11.9208,3.352
same,Gi1 hCB1,hCB1; Log [Compound] (M) -12.3979,2.124
same,GoB hCB1,hCB1; Log [Compound] (M) -12.3979,2.741
same,Gi1 hCB1,hCB1; Log [Compound] (M) -12.8861,2.556
same,GoB hCB1,hCB1; Log [Compound] (M) -12.8861,2.3094
same,Gi1 hCB1,hCB1; Log [Compound] (M) -13,3.496 and 2.864
same,GoB hCB1,hCB1; Log [Compound] (M) -13,2.327 and 3.748
same,pEC50 [95% CI],hCB1; hCB1 Gi1,5.6 [5.5 – 5.6]
same,Emax [95% CI],hCB1; hCB1 Gi1,98 [94 – 102]
same,pEC50 [95% CI],hCB1; hCB1 GoB,5.2 [4.8 – 5.6]
same,Emax [95% CI],hCB1; hCB1 GoB,118 [94 – 143]
same,pEC50 [95% CI],hCB1; hCB1 Gz,5.6 [5.2 – 6.1]
same,EC50,hCB1; hCB1 Gi1,2.8 µM
same,EC50,hCB1; hCB1 GoB,6.73 µM
same,EC50,hCB1; hCB1 Gz,2.47 µM

# — publication PMC11882969 (Nature Communications, 2025)
